In article PMC5333544, “Purification and biochemical characterization of recombinant Persicaria minor β-sesquiphellandrene synthase” (PeerJ, 2017):

How the values were obtained:
PmSTS_Δ24 [1] = biological target: T1, PmSTS_Δ24 (Persicaria minor, UniProt I6XZ73, K266E, form not given); experiment: GC-MS product analysis after hexane extraction; format: biochemical; conditions: overnight incubation; product beta-sesquiphellandrene
T1 construct: N-terminal 24 residues removed from the 562-residue protein; N-terminal His6 tag (pET28b), no cleavage told; E. coli BL21 (DE3); PCR primer codes for Met-AGFKPS start; monomer stated for the full-length enzyme
T1 sequence (I6XZ73 entry or part of it K266E, form open): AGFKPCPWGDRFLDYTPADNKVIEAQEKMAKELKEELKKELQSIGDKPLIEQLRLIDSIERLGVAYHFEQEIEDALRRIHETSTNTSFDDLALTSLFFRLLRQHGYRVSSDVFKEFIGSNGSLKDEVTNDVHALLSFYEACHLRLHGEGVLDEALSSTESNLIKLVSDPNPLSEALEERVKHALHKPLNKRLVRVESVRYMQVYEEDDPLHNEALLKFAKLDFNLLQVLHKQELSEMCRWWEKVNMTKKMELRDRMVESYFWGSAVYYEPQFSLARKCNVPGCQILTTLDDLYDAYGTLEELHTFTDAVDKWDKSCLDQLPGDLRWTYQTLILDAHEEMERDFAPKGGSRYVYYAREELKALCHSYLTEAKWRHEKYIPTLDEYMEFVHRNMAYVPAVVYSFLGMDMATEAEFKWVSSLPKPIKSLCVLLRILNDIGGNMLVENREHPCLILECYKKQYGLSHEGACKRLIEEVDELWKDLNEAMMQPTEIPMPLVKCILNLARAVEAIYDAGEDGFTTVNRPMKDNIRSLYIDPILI

PmSTS_Δ24 [2] = biological target: T2, PmSTS_Δ24 (Persicaria minor, UniProt I6XZ73); experiment: malachite green phosphate assay coupled to inorganic diphosphatase; format: biochemical; conditions: 20 mM HEPES pH 8.0, 10 mM MgCl2, 30 °C, 0.1 µM enzyme, 2–30 µM FPP; read-out: Km app
T2 construct: N-terminal 24 residues removed from the 562-residue protein; N-terminal His6 tag (pET28b), no cleavage told; E. coli BL21 (DE3); PCR primer codes for Met-AGFKPS start; monomer stated for the full-length enzyme
T2 sequence (I6XZ73 entry or part of it, stated change not applied): as the sequence (I6XZ73 entry or part of it K266E, form open) above, with E242K counted along it

Q: Which “GC-MS product analysis after hexane extraction” value (PmSTS_Δ24 [1]) does the source give for CC(C)=CCC/C(C)=C/CC/C(C)=C/COP(=O)(O)OP(=O)(O)O [farnesyl diphosphate] here?
A: The value was “mutant protein K266E produced using an E. coli expression system displayed a product profile”.

Q: With CC(C)=CCC/C(C)=C/CC/C(C)=C/CO[P@@](=O)(O)OP(=O)(O)O (stereo in doubt) [farnesyl diphosphate] as the compound, how does the Km (PmSTS_Δ24 [2]) read?
A: Its Km is 10.2 µM.
